Drawing on patent publication US8173645B2 (Takeda San Diego, Inc., priority 2007, dated 2012), this text covers EC50 and Emax for 20 molecules.

The target of the test is T1, glucokinase (GK), residues 12-465 of the human enzyme (Homo sapiens, UniProt P35557).
T1 construct: I.D. No. 1 corresponds to residues 12-465 of glucokinase; made in house; host or cells: E. coli DH10b-Tlr
T1 sequence (P35557 with tags, fused parts or gaps isoform P35557-2): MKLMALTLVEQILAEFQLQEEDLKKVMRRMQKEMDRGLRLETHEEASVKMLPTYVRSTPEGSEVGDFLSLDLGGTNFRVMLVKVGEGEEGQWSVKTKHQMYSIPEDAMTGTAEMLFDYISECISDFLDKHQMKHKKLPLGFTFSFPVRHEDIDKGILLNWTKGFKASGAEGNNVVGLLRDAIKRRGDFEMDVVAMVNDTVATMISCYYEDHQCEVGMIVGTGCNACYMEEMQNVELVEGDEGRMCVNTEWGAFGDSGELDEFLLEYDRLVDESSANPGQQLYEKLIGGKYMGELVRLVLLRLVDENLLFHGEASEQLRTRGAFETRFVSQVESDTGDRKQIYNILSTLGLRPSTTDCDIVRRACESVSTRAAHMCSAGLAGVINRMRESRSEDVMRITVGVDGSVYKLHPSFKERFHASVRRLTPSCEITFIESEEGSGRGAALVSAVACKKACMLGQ
In words: Enzymatic glucokinase activity assay (KinaseGlo luminescence, ATP consumption). The format is biochemical. The settings on record: 5 μM ATP, 5 mM Glucose; for EC50: GK activation, Kact = concentration giving 50% of the maximal increase in GK activity, read-out: pKact; for Emax: calculated maximal gain in GK enzyme activity at a saturating concentration of the compound, read-out: % ACTmax. The method, boiled down:
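Activation measured as ATP consumption: residual ATP detected by KinaseGlo luminescence after 60 min at room temperature with 5 μM ATP and 5 mM glucose (Hepes pH 7.2, MgCl2, Brij35, DTT, 2% DMSO). Enzyme was recombinant FLAG-tagged protein from E. coli. Eleven-point twofold series were fitted nonlinearly for pKact and % ACTmax.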

Take `O=C(Nc1nccs1)[C@H](CC1CCCCC1)N1CCN(S(=O)(=O)Cc2cc(Cl)cc(Cl)c2)CC1=O` [Example 212, (S)-3-cyclohexyl-2-(4-(3,5-dichlorobenzylsulfonyl)-2-oxopiperazin-1-yl)-N-(thiazol-2-yl)propanamide]: the EC50 was 1580 to 2510 nM and the Emax is 74.1 to 97%.
Consider `O=C(Nc1nccs1)[C@H](CC1CCCCC1)N1CCN(S(=O)(=O)Cc2cccc(C(F)(F)F)c2)CC1=O` [Example 213, (S)-3-cyclohexyl-2-(2-oxo-4-(3-(trifluoromethyl)benzylsulfonyl)piperazin-1-yl)-N-(thiazol-2-yl)propanamide], for which the EC50 was in the range of 1580 to 2510 nM and the Emax is 74.1 to 97%.
In the same order, the values of `CNC(=O)Nc1ccc(S(=O)(=O)N2CCN([C@@H](CC3CCCCC3)C(=O)Nc3nccs3)C(=O)C2)cc1Cl` [Example 214, (S)-2-(4-(3-chloro-4-(3-methylureido)phenylsulfonyl)-2-oxopiperazin-1-yl)-3-cyclohexyl-N-(thiazol-2-yl)propanamide] are 1580 to 2510 nM and 97.1 to 107%.
In the same order, the values of `O=C(Nc1nccs1)[C@H](CC1CCCCC1)N1CCN(S(=O)(=O)c2ccc(-n3cccn3)cc2)CC1=O` [Example 215, (S)-2-(4-(4-(1H-pyrazol-1-yl)phenylsulfonyl)-2-oxopiperazin-1-yl)-3-cyclohexyl-N-(thiazol-2-yl)propanamide] are 1580 to 2510 nM and 74.1 to 97%.
In the same order, the values of `O=C(Nc1nccs1)[C@H](CC1CCCCC1)N1CCN(S(=O)(=O)c2cnc(Cl)c(Br)c2)CC1=O` [Example 217, (S)-2-(4-(5-bromo-6-chloropyridin-3-ylsulfonyl)-2-oxopiperazin-1-yl)-3-cyclohexyl-N-(thiazol-2-yl)propanamide] are 1580 to 2510 nM and at most 74%.
For the molecule `Cc1ccccc1S(=O)(=O)N1CCN([C@@H](CC2CCCCC2)C(=O)Nc2nccs2)C(=O)C1` [Example 218, (S)-3-cyclohexyl-2-(2-oxo-4-(o-tolylsulfonyl)piperazin-1-yl)-N-(thiazol-2-yl)propanamide], the EC50 was in the range of 794 to 1260 nM and the Emax is 108 to 119%.
In the same order, the values of `O=C(Nc1nccs1)[C@H](CC1CCCCC1)N1CCN(S(=O)(=O)c2cc(Cl)c(Cl)cc2Cl)CC1=O` [Example 219, (S)-3-cyclohexyl-2-(2-oxo-4-(2,4,5-trichlorophenylsulfonyl)piperazin-1-yl)-N-(thiazol-2-yl)propanamide] are 1580 to 2510 nM and at most 74%.
`O=C(Nc1nccs1)[C@H](CC1CCCCC1)N1CCN(S(=O)(=O)c2ccc(Cl)c(Cl)c2Cl)CC1=O` [Example 220, (S)-3-cyclohexyl-2-(2-oxo-4-(2,3,4-trichlorophenylsulfonyl)piperazin-1-yl)-N-(thiazol-2-yl)propanamide]: the EC50 was 794 to 1260 nM and the Emax is at most 74%.
Regarding `Cc1cc(S(=O)(=O)N2CCN([C@@H](CC3CCCCC3)C(=O)Nc3nccs3)C(=O)C2)c(Cl)cc1Cl` [Example 221, (S)-3-cyclohexyl-2-(4-(2,4-dichloro-5-methylphenylsulfonyl)-2-oxopiperazin-1-yl)-N-(thiazol-2-yl)propanamide], the EC50 was 1580 to 2510 nM and the Emax was at most 74%.
In the same order, the values of `Cc1ccc(S(=O)(=O)N2CCN([C@@H](CC3CCCCC3)C(=O)Nc3nccs3)C(=O)C2)c(F)c1` [Example 222, (S)-3-cyclohexyl-2-(4-(2-fluoro-4-methylphenylsulfonyl)-2-oxopiperazin-1-yl)-N-(thiazol-2-yl)propanamide] are at most 631 nM and 108 to 119%.
In the same order, the values of `Cc1cc(F)ccc1S(=O)(=O)N1CCN([C@@H](CC2CCCCC2)C(=O)Nc2nccs2)C(=O)C1` [Example 223, (S)-3-cyclohexyl-2-(4-(4-fluoro-2-methylphenylsulfonyl)-2-oxopiperazin-1-yl)-N-(thiazol-2-yl)propanamide] are 1580 to 2510 nM and 97.1 to 107%.
Take `CC(C)(C)c1ccc(S(=O)(=O)N2CCN([C@@H](CC3CCCCC3)C(=O)Nc3nccs3)C(=O)C2)cc1` [Example 224, (S)-2-(4-(4-tert-butylphenylsulfonyl)-2-oxopiperazin-1-yl)-3-cyclohexyl-N-(thiazol-2-yl)propanamide]: the EC50 was 794 to 1260 nM and the Emax is at most 74%.
In the same order, the values of `CCc1ccc(S(=O)(=O)N2CCN([C@@H](CC3CCCCC3)C(=O)Nc3nccs3)C(=O)C2)cc1` [Example 225, (S)-3-cyclohexyl-2-(4-(4-ethylphenylsulfonyl)-2-oxopiperazin-1-yl)-N-(thiazol-2-yl)propanamide] are 794 to 1260 nM and 97.1 to 107%.
For `O=C(Nc1nccs1)[C@H](CC1CCCCC1)N1CCN(S(=O)(=O)c2cc3ccccc3o2)CC1=O` [Example 226, (S)-2-(4-(benzofuran-2-ylsulfonyl)-2-oxopiperazin-1-yl)-3-cyclohexyl-N-(thiazol-2-yl)propanamide] the same measures were 794 to 1260 nM and 74.1 to 97%.
For `O=C(Nc1nccs1)[C@H](CC1CCCCC1)N1CCN(S(=O)(=O)C2CCCCC2)CC1=O` [Example 227] the same measures were at most 631 nM and at least 119%.
Consider `COc1ccc(Oc2cccc(S(=O)(=O)N3CCN([C@@H](CC4CCCCC4)C(=O)Nc4nccs4)C(=O)C3)c2)cc1` [Example 228, (S)-3-cyclohexyl-2-(4-(3-(4-methoxyphenoxy)phenylsulfonyl)-2-oxopiperazin-1-yl)-N-(thiazol-2-yl)propanamide], for which the EC50 fell in the range of 794 to 1260 nM and the Emax was at most 74%.
Take `O=C(Nc1nccs1)[C@H](CC1CCCCC1)N1CCN(S(=O)(=O)N2CCCC2)CC1=O` [Example 229, (S)-3-cyclohexyl-2-(2-oxo-4-(pyrrolidin-1-ylsulfonyl)piperazin-1-yl)-N-(thiazol-2-yl)propanamide]: the EC50 is at most 631 nM and the Emax is 108 to 119%.
As to `N#Cc1cc(S(=O)(=O)N2CCN([C@@H](CC3CCCCC3)C(=O)Nc3nccs3)C(=O)C2)ccc1F` [Example 230, (S)-2-(4-(3-cyano-4-fluorophenylsulfonyl)-2-oxopiperazin-1-yl)-3-cyclohexyl-N-(thiazol-2-yl)propanamide], the EC50 was in the range of 1580 to 2510 nM and the Emax is 74.1 to 97%.
For `O=C(Nc1nccs1)[C@H](CC1CCCCC1)N1CCN(S(=O)(=O)c2ccc(Br)c(Br)c2)CC1=O` [Example 231, (S)-3-cyclohexyl-2-(4-(3,4-dibromophenylsulfonyl)-2-oxopiperazin-1-yl)-N-(thiazol-2-yl)propanamide] the same measures were 794 to 1260 nM and at most 74%.
In the same order, the values of `O=C(Nc1nccs1)[C@H](CC1CCCCC1)N1CCN(S(=O)(=O)c2cccc(Br)c2)CC1=O` [Example 232, (S)-2-(4-(3-bromophenylsulfonyl)-2-oxopiperazin-1-yl)-3-cyclohexyl-N-(thiazol-2-yl)propanamide] are at most 631 nM and 108 to 119%.
